From patent US20040266791A1 (priority 2003, published 2004)
Where a name gives a salt, the structure may show the parent alone.

How the values were obtained:
[1] = in water at 20° C., calculated on free base
Description: The dissolution of the solid can take a period of time until an equilibrium/steady state between the solid and liquid phases is reached. […] This value is taken as the solubility determination.
Then, 2 ml of the suspension was filtered over a micropore filter. Finally, 1.0 ml of the filtrate was freeze-dried, followed by weight determination of the residue. The maximum amount of the salt dissolved (recalculated to the base), was calculated from this weight determination.

[2] = Hygroscopicity test / water content by Karl Fischer titration; format: physicochemical; details: for Water content in % at 2 weeks, 40/75: 40° C./75% relative humidity; for Water content in % at 2 weeks, normal: normal conditions (open air); for Water content in % at t = 0: before storage, Karl Fischer; for water content: isolated dried product of the example
Description: The salts were subjected to storage at normal conditions (open air) and at 40° C./75% relative humidity. Water content was determined by Karl Fischer titration.

[3] = 1 mg/ml aqueous solution, 2% sorbitol, 0.2% benzoic acid, stress temperatures up to 80° C.
Description: Dissolve the benzoic acid in 60% of the water (heat if necessary to 90° C., allow to cool afterwards). […] The sorbitol is dissolved in the remaining water (40%). Combine both solutions and make up the volume with water.

[4] = cited from earlier work

| Compound | solubility (calc. on free base) [1] | Water content in % at 2 weeks, 40/75 [2] | Water content in % at 2 weeks, normal [2] | Water content in % at t = 0 [2] | other results |
| --- | --- | --- | --- | --- | --- |
| Risperidone hemitartrate | 40 mg/mL | 0.59% | 0.56% | 0.28% | water content [2]: Water content: 0.28% |
| Cc1nc2n(c(=O)c1CCN1CCC(c3noc4cc(F)ccc34)CC1)CCCC2.O=C(O)C=CC(=O)O [Risperidone hydrogenmaleate] |  | 0.07% | 0.09% | 0.09% | stability of solution [3]: surprisingly stable; water content [2]: water content: <0.1% |
| Risperidone mesylate | >160 mg/mL |  |  | 0.41% | Water content in % at 2 weeks, 40/75 ([2]; listed as Mesylate): 8.51%; Water content in % at 2 weeks, 40/75 ([2]; listed as risperidone mesylate): 2 weeks: 8.51%; Water content in % at 2 weeks, normal ([2]; listed as Mesylate): 1.38%; Water content in % at 2 weeks, normal ([2]; listed as risperidone mesylate): for 2 weeks: 1.38%; water content [2]: water content: 0.41% |
| Risperidone (L)hemimalate | >300 mg/mL | 1.09% | 0.95% | 0.89% | stability of solution [3]: surprisingly stable |
| Risperidone Hemifumarate | 3 mg/mL |  |  |  |  |
| Risperidone besylate | 6.5 mg/mL |  |  |  |  |
| Risperidone tosylate | 2 mg/mL |  |  |  |  |
| Cc1nc2n(c(=O)c1CCN1CCC(c3noc4cc(F)ccc34)CC1)CCCC2 [Risperidone base, 3-[2-[4-(6-Fluoro-1,2-benzisoxazol-3-yl)-1-piperidinyl]-ethyl]-6,7,8,9-tetrahydro-2-methyl-4-H-pyrido[1,2-a]-pyrimidin-4-one] |  |  |  |  | solubility in water ([4]; background statement, no source given): approximately 4 mg/ml |
| Cc1nc2n(c(=O)c1CCN1CCC(c3noc4cc(F)ccc34)CC1)CCCC2 [Risperidone dihydrochloride] |  | 0.15% | 0.15% | 0.13% | stability of solution [3]: surprisingly stable; water content after exposure to air under ambient conditions for 3 weeks ([2]; 3 weeks, air, ambient conditions): 3 weeks: 0.30%; absorbed or adsorbed water ([2]; absence of drying, or standing at ambient temperature in open air): less than 0.5%; hygroscopicity ([2]; standing at ambient temperature in open air): not hygroscopic |
| risperidone tartrate |  |  |  |  | room temperature solubility ([4]; reported in U.S. Pat. No. 5,616,587): about 80 mg/ml |
| Risperidone acetate monohydrate | 72 mg/mL | 3.66% | 3.39% | 3.78% |  |
